Measurements from the NIST ThermoML archive (doi:10.1021/je800224k).
Numbers after ± are expanded uncertainties.

Conditions: Liquid

CCn1cc[n+](C)c1.F[B-](F)(F)F [1-ethyl-3-methylimidazolium tetrafluoroborate]
Conditions	mass density [kg/m3]
293.15 K, 101.33 kPa, Vibrating tube method	1284.4 ± 4.8
313.15 K, 101.33 kPa, Vibrating tube method	1269.1 ± 4.7
313.2 K, 10000 kPa, Bellows volumetry	1274 ± 5
313.2 K, 20000 kPa, Bellows volumetry	1278 ± 5
313.2 K, 30000 kPa, Bellows volumetry	1282 ± 5
313.2 K, 40000 kPa, Bellows volumetry	1287 ± 5
313.2 K, 50000 kPa, Bellows volumetry	1291 ± 5
313.2 K, 60000 kPa, Bellows volumetry	1295 ± 5
313.2 K, 70000 kPa, Bellows volumetry	1299 ± 5
313.2 K, 80000 kPa, Bellows volumetry	1302 ± 5
313.2 K, 90000 kPa, Bellows volumetry	1306 ± 5
313.2 K, 100000 kPa, Bellows volumetry	1310 ± 5
313.2 K, 110000 kPa, Bellows volumetry	1313 ± 5
313.2 K, 120000 kPa, Bellows volumetry	1317 ± 5
313.2 K, 130000 kPa, Bellows volumetry	1320 ± 5
313.2 K, 140000 kPa, Bellows volumetry	1323 ± 5
313.2 K, 150000 kPa, Bellows volumetry	1327 ± 5
313.2 K, 160000 kPa, Bellows volumetry	1330 ± 5
313.2 K, 170000 kPa, Bellows volumetry	1333 ± 5
313.2 K, 180000 kPa, Bellows volumetry	1336 ± 5
313.2 K, 190000 kPa, Bellows volumetry	1339 ± 5
313.2 K, 200000 kPa, Bellows volumetry	1342 ± 5
332.6 K, 10000 kPa, Bellows volumetry	1259 ± 5
332.6 K, 20000 kPa, Bellows volumetry	1264 ± 5
332.6 K, 30000 kPa, Bellows volumetry	1268 ± 5
332.6 K, 40000 kPa, Bellows volumetry	1273 ± 5
332.6 K, 50000 kPa, Bellows volumetry	1277 ± 5
332.6 K, 60000 kPa, Bellows volumetry	1281 ± 5
332.6 K, 70000 kPa, Bellows volumetry	1285 ± 5
332.6 K, 80000 kPa, Bellows volumetry	1289 ± 5
332.6 K, 90000 kPa, Bellows volumetry	1293 ± 5
332.6 K, 100000 kPa, Bellows volumetry	1297 ± 5
332.6 K, 110000 kPa, Bellows volumetry	1300 ± 5
332.6 K, 120000 kPa, Bellows volumetry	1304 ± 5
332.6 K, 130000 kPa, Bellows volumetry	1307 ± 5
332.6 K, 140000 kPa, Bellows volumetry	1311 ± 5
332.6 K, 150000 kPa, Bellows volumetry	1314 ± 5
332.6 K, 160000 kPa, Bellows volumetry	1317 ± 5
332.6 K, 170000 kPa, Bellows volumetry	1321 ± 5
332.6 K, 180000 kPa, Bellows volumetry	1324 ± 5
332.6 K, 190000 kPa, Bellows volumetry	1327 ± 5
332.6 K, 200000 kPa, Bellows volumetry	1330 ± 5
333.15 K, 101.33 kPa, Vibrating tube method	1254 ± 4.6
352.7 K, 10000 kPa, Bellows volumetry	1244 ± 5
352.7 K, 20000 kPa, Bellows volumetry	1249 ± 5
352.7 K, 30000 kPa, Bellows volumetry	1254 ± 5
352.7 K, 40000 kPa, Bellows volumetry	1259 ± 5
352.7 K, 50000 kPa, Bellows volumetry	1263 ± 5
352.7 K, 60000 kPa, Bellows volumetry	1267 ± 5
352.7 K, 70000 kPa, Bellows volumetry	1272 ± 5
352.7 K, 80000 kPa, Bellows volumetry	1276 ± 5
352.7 K, 90000 kPa, Bellows volumetry	1280 ± 5
352.7 K, 100000 kPa, Bellows volumetry	1284 ± 5
352.7 K, 110000 kPa, Bellows volumetry	1287 ± 5
352.7 K, 120000 kPa, Bellows volumetry	1291 ± 5
352.7 K, 130000 kPa, Bellows volumetry	1295 ± 5
352.7 K, 140000 kPa, Bellows volumetry	1298 ± 5
352.7 K, 150000 kPa, Bellows volumetry	1302 ± 5
352.7 K, 160000 kPa, Bellows volumetry	1305 ± 5
352.7 K, 170000 kPa, Bellows volumetry	1309 ± 5
352.7 K, 180000 kPa, Bellows volumetry	1312 ± 5
352.7 K, 190000 kPa, Bellows volumetry	1315 ± 5
352.7 K, 200000 kPa, Bellows volumetry	1318 ± 5
353.15 K, 101.33 kPa, Vibrating tube method	1239.3 ± 4.5
372.8 K, 10000 kPa, Bellows volumetry	1230 ± 4
372.8 K, 20000 kPa, Bellows volumetry	1235 ± 4
372.8 K, 30000 kPa, Bellows volumetry	1240 ± 4
372.8 K, 40000 kPa, Bellows volumetry	1245 ± 5
372.8 K, 50000 kPa, Bellows volumetry	1250 ± 5
372.8 K, 60000 kPa, Bellows volumetry	1254 ± 5
372.8 K, 70000 kPa, Bellows volumetry	1258 ± 5
372.8 K, 80000 kPa, Bellows volumetry	1263 ± 5
372.8 K, 90000 kPa, Bellows volumetry	1267 ± 5
372.8 K, 100000 kPa, Bellows volumetry	1271 ± 5
372.8 K, 110000 kPa, Bellows volumetry	1275 ± 5
372.8 K, 120000 kPa, Bellows volumetry	1279 ± 5
372.8 K, 130000 kPa, Bellows volumetry	1282 ± 5
372.8 K, 140000 kPa, Bellows volumetry	1286 ± 5
372.8 K, 150000 kPa, Bellows volumetry	1290 ± 5
372.8 K, 160000 kPa, Bellows volumetry	1293 ± 5
372.8 K, 170000 kPa, Bellows volumetry	1297 ± 5
372.8 K, 180000 kPa, Bellows volumetry	1300 ± 5
372.8 K, 190000 kPa, Bellows volumetry	1303 ± 5
372.8 K, 200000 kPa, Bellows volumetry	1307 ± 5
392.9 K, 10000 kPa, Bellows volumetry	1216 ± 4
392.9 K, 20000 kPa, Bellows volumetry	1221 ± 4
392.9 K, 30000 kPa, Bellows volumetry	1227 ± 4
392.9 K, 40000 kPa, Bellows volumetry	1232 ± 4
392.9 K, 50000 kPa, Bellows volumetry	1237 ± 4
392.9 K, 60000 kPa, Bellows volumetry	1241 ± 4
392.9 K, 70000 kPa, Bellows volumetry	1246 ± 5
392.9 K, 80000 kPa, Bellows volumetry	1250 ± 5
392.9 K, 90000 kPa, Bellows volumetry	1254 ± 5
392.9 K, 100000 kPa, Bellows volumetry	1259 ± 5
392.9 K, 110000 kPa, Bellows volumetry	1263 ± 5
392.9 K, 120000 kPa, Bellows volumetry	1267 ± 5
392.9 K, 130000 kPa, Bellows volumetry	1270 ± 5
392.9 K, 140000 kPa, Bellows volumetry	1274 ± 5
392.9 K, 150000 kPa, Bellows volumetry	1278 ± 5
392.9 K, 160000 kPa, Bellows volumetry	1282 ± 5
392.9 K, 170000 kPa, Bellows volumetry	1285 ± 5
392.9 K, 180000 kPa, Bellows volumetry	1289 ± 5
392.9 K, 190000 kPa, Bellows volumetry	1292 ± 5
392.9 K, 200000 kPa, Bellows volumetry	1295 ± 5
413 K, 10000 kPa, Bellows volumetry	1202 ± 4
413 K, 20000 kPa, Bellows volumetry	1208 ± 4
413 K, 30000 kPa, Bellows volumetry	1213 ± 4
413 K, 40000 kPa, Bellows volumetry	1219 ± 4
413 K, 50000 kPa, Bellows volumetry	1224 ± 4
413 K, 60000 kPa, Bellows volumetry	1229 ± 4
413 K, 70000 kPa, Bellows volumetry	1233 ± 4
413 K, 80000 kPa, Bellows volumetry	1238 ± 4
413 K, 90000 kPa, Bellows volumetry	1242 ± 5
413 K, 100000 kPa, Bellows volumetry	1247 ± 5
413 K, 110000 kPa, Bellows volumetry	1251 ± 5
413 K, 120000 kPa, Bellows volumetry	1255 ± 5
413 K, 130000 kPa, Bellows volumetry	1259 ± 5
413 K, 140000 kPa, Bellows volumetry	1263 ± 5
413 K, 150000 kPa, Bellows volumetry	1267 ± 5
413 K, 160000 kPa, Bellows volumetry	1270 ± 5
413 K, 170000 kPa, Bellows volumetry	1274 ± 5
413 K, 180000 kPa, Bellows volumetry	1278 ± 5
413 K, 190000 kPa, Bellows volumetry	1281 ± 5
413 K, 200000 kPa, Bellows volumetry	1285 ± 5
432.9 K, 10000 kPa, Bellows volumetry	1189 ± 4
432.9 K, 20000 kPa, Bellows volumetry	1195 ± 4
432.9 K, 30000 kPa, Bellows volumetry	1200 ± 4
432.9 K, 40000 kPa, Bellows volumetry	1206 ± 4
432.9 K, 50000 kPa, Bellows volumetry	1211 ± 4
432.9 K, 60000 kPa, Bellows volumetry	1216 ± 4
432.9 K, 70000 kPa, Bellows volumetry	1221 ± 4
432.9 K, 80000 kPa, Bellows volumetry	1226 ± 4
432.9 K, 90000 kPa, Bellows volumetry	1230 ± 4
432.9 K, 100000 kPa, Bellows volumetry	1235 ± 4
432.9 K, 110000 kPa, Bellows volumetry	1239 ± 4
432.9 K, 120000 kPa, Bellows volumetry	1243 ± 5
432.9 K, 130000 kPa, Bellows volumetry	1247 ± 5
432.9 K, 140000 kPa, Bellows volumetry	1252 ± 5
432.9 K, 150000 kPa, Bellows volumetry	1255 ± 5
432.9 K, 160000 kPa, Bellows volumetry	1259 ± 5
432.9 K, 170000 kPa, Bellows volumetry	1263 ± 5
432.9 K, 180000 kPa, Bellows volumetry	1267 ± 5
432.9 K, 190000 kPa, Bellows volumetry	1270 ± 5
432.9 K, 200000 kPa, Bellows volumetry	1274 ± 5
452.6 K, 10000 kPa, Bellows volumetry	1176 ± 4
452.6 K, 20000 kPa, Bellows volumetry	1182 ± 4
452.6 K, 30000 kPa, Bellows volumetry	1188 ± 4
452.6 K, 40000 kPa, Bellows volumetry	1193 ± 4
452.6 K, 50000 kPa, Bellows volumetry	1199 ± 4
452.6 K, 60000 kPa, Bellows volumetry	1204 ± 4
452.6 K, 70000 kPa, Bellows volumetry	1209 ± 4
452.6 K, 80000 kPa, Bellows volumetry	1214 ± 4
452.6 K, 90000 kPa, Bellows volumetry	1219 ± 4
452.6 K, 100000 kPa, Bellows volumetry	1223 ± 4
452.6 K, 110000 kPa, Bellows volumetry	1228 ± 4
452.6 K, 120000 kPa, Bellows volumetry	1232 ± 4
452.6 K, 130000 kPa, Bellows volumetry	1236 ± 4
452.6 K, 140000 kPa, Bellows volumetry	1240 ± 4
452.6 K, 150000 kPa, Bellows volumetry	1245 ± 5
452.6 K, 160000 kPa, Bellows volumetry	1248 ± 5
452.6 K, 170000 kPa, Bellows volumetry	1252 ± 5
452.6 K, 180000 kPa, Bellows volumetry	1256 ± 5
452.6 K, 190000 kPa, Bellows volumetry	1260 ± 5
452.6 K, 200000 kPa, Bellows volumetry	1264 ± 5
472.4 K, 10000 kPa, Bellows volumetry	1163 ± 4
472.4 K, 20000 kPa, Bellows volumetry	1169 ± 4
472.4 K, 30000 kPa, Bellows volumetry	1175 ± 4
472.4 K, 40000 kPa, Bellows volumetry	1181 ± 4
472.4 K, 50000 kPa, Bellows volumetry	1187 ± 4
472.4 K, 60000 kPa, Bellows volumetry	1192 ± 4
472.4 K, 70000 kPa, Bellows volumetry	1197 ± 4
472.4 K, 80000 kPa, Bellows volumetry	1202 ± 4
472.4 K, 90000 kPa, Bellows volumetry	1207 ± 4
472.4 K, 100000 kPa, Bellows volumetry	1212 ± 4
472.4 K, 110000 kPa, Bellows volumetry	1217 ± 4
472.4 K, 120000 kPa, Bellows volumetry	1221 ± 4
472.4 K, 130000 kPa, Bellows volumetry	1226 ± 4
472.4 K, 140000 kPa, Bellows volumetry	1230 ± 4
472.4 K, 150000 kPa, Bellows volumetry	1234 ± 4
472.4 K, 160000 kPa, Bellows volumetry	1238 ± 4
472.4 K, 170000 kPa, Bellows volumetry	1242 ± 5
472.4 K, 180000 kPa, Bellows volumetry	1246 ± 5
472.4 K, 190000 kPa, Bellows volumetry	1250 ± 5
472.4 K, 200000 kPa, Bellows volumetry	1253 ± 5
